{"source": "patent US5385899A", "about": "“Aminoalkyl-substituted 5,6-dihydro-dibenz[b,e]azepine-6,11-dione-11-oximes” (Bayer Aktiengesellschaft, priority 1991, dated 1995)", "system": "HIV", "assay": "HIV infection in cell culture: suppression of virus-induced syncytia (PBLs or H9 cells)", "assay_type": "cell-based", "settings": "read-out: IC50 (suppression of 50% of virus-induced syncytia)", "protocol": "The HIV test was carried out with slight modifications according to the method of Pauwels et al. [cf. Journal of Virological Methods 20, (1988), 309-321].\nNormal human blood lyphocytes (PBLs) were concentrated by means of Ficoll-Hypaque and stimulated with phytohaemagglutinin (90 μg/ml) and interleukin-2 (40 U/ml) in RPMI 1640 and 20% foetal calf serum. For infection with the infectious HIV, PBLs were pelleted and the cell pellet was then suspended in 1 ml of HIV virus adsorption solution and incubated for 1 hour at 37° C.\nAlternatively, HIV-susceptible H9 cells were employed instead of normal human blood lymphocytes for testing the antiviral effects of the compounds according to the invention.\nThe virus adsorption solution was centrifuged and the infected cell pellet was taken up in growth medium so that a concentration of 1×10^5 cells per ml was established. The cells infected in this way were pipetted into the wells of 96-well microtiter plates to give 1×10^4 cells/well.\nThe first vertical row of the microtiter plate contained only growth medium and cells which had not been infected, but otherwise treated exactly as described above (cell control). The second vertical row of the microtiter plate contained only HIV-infected cells (virus control) in growth medium. The other wells contained the compounds according to the invention in differing concentrations, starting from the wells of the 3rd vertical row of the microtiter plate, from which the test substances were diluted 2^10 times in 2-fold steps.\nThe test batches were incubated at 37° C. until, in the untreated virus control, the syncytia formation typical of HIV occurred (between day 3 and 6 after infection), which was then microscopically assessed. Under these test conditions, in the untreated virus control about 20-50 syncytia resulted, while the untreated cell control contained no syncytia.\nThe IC50 values were determined as the concentration of the treated and infected cells at which 50% (about 10-20 syncytia) of the virus-induced syncytia were suppressed by treatment with the compound according to the invention.", "key": {"[1]": {"settings": "Human immunodeficiency virus 1, 72 h, HIV-infected PBLs or alternatively H9 cells, syncytia assessed microscopically between day 3 and 6 after infection, 37° C."}}, "note": "Like-named read-outs stand apart in the source and are kept apart here."}
{"smiles": "CN(C)CCON=c1c2cc(Cl)ccc2[nH]c(=O)c2ccccc12", "note": "(mixture of isomers) [Example 1, (E/Z)-2-Chloro-11-(2-dimethylaminoethoxyimino)-6-oxo-5,6-dihydro-11H-dibenz[b,e] azepine]", "values": [{"measurement": "IC50", "setting": "[1]", "result": 380, "unit": "nM"}]}
{"smiles": "Cc1ccnc2c1NC(=O)c1cccnc1N2C1CC1", "note": "[BIRG 587, reference compound]", "values": [{"measurement": "IC50", "setting": "Human immunodeficiency virus 1, H9, 72 h", "result": 90, "unit": "nM"}]}
{"smiles": "O=c1[nH]c2ccc(Cl)cc2c(=NOCCN2CCOCC2)c2ccccc12", "note": "[Example 3]", "values": [{"measurement": "IC50", "setting": "[1]", "result": 1500, "unit": "nM"}]}
